Experimental data from patent publication US20140350050A1, “PYRIDINE COMPOUNDS AS INHIBITORS OF KINASE” (TELIGENE LTD., priority 2011, published 2014).
Like-named read-outs stand apart in the source and are kept apart here.

Legend:
[1] = biological target: T1, BAF3-EML4-ALK stable cell line (Homo sapiens, UniProt Q9UM73); experiment: BAF3-EML4-ALK cell assay (MTT cell proliferation); assay type: cell-based; conditions: 72 hours, read-out: BAF3-EML4-ALK Cell (IC50 grading)
T1 construct: fused on or other part: Q9HC35 (Echinoderm microtubule-associated protein-like 4)
T1 sequence (Q9UM73 whole entry, change not shown, the tested form may be a part): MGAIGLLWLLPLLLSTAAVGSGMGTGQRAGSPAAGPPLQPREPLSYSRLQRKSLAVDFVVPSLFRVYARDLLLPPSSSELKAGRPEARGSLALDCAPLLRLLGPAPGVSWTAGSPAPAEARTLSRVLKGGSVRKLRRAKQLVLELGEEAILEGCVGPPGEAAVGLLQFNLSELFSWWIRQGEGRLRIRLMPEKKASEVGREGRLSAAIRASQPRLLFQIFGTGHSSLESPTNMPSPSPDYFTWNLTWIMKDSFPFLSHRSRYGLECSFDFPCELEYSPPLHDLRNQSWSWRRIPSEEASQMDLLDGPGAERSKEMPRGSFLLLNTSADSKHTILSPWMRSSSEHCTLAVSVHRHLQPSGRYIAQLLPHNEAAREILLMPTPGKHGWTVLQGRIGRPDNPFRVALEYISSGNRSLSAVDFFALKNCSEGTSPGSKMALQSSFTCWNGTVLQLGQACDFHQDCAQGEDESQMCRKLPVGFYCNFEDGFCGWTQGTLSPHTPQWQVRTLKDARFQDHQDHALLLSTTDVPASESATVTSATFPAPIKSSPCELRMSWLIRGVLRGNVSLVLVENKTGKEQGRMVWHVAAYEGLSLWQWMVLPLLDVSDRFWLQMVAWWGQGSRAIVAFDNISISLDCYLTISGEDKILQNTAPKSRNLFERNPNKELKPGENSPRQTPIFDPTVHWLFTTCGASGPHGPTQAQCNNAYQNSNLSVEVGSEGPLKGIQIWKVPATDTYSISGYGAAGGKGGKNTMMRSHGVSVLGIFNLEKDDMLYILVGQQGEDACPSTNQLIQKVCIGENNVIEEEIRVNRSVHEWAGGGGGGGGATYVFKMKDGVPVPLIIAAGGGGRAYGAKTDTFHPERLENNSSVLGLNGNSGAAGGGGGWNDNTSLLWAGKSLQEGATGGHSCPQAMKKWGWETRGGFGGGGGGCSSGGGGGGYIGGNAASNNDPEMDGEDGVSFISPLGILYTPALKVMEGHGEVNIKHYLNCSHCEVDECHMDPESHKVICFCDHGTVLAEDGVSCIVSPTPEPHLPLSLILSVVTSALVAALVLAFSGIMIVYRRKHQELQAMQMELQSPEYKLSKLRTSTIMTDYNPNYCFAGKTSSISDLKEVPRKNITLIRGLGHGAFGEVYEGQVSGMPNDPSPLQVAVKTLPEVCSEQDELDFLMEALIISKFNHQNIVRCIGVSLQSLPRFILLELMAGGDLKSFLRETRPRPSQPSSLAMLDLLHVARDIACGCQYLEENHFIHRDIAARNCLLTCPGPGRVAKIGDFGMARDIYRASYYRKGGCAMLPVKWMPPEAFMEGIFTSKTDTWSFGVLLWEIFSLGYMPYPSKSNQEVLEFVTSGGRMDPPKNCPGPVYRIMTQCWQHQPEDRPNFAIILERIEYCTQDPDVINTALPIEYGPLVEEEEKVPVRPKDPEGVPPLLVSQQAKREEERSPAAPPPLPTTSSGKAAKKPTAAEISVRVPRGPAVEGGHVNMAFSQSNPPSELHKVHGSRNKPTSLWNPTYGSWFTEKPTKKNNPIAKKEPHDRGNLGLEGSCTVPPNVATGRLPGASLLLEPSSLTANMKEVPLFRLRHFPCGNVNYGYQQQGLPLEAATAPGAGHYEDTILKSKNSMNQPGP
Procedure: BAF3-EML4-ALK Cell Assay:
A method of establishing BAF3-EML4-ALK stable cell line: Transfer 5×10^6 BAF3 cells to a new tube, pellet the cells, and remove PBS by aspiration.; Resuspend the cells in 1 ml electroporation buffer, this provides 5×10^6 of cells; Transfer 200 μl of cell suspension to EP tube, add 5 ug DNA, flip and place it on ice for 10 min; Pipet the 200 μl cell suspension into 2 mm electroporation cuvette; Place the cuvette into shockpod, close the lid, and press the PULSE button; Set parameters: Expentional decay pulse: VOL=200 V; CAP=900 uF, RES=1000Ω; Transfer all cells from electroporation cuvette to 6 well plate, adding 2 ml DMEMF12 containing 5 ng/ml IL3, 24 h later, replace the medium with DMEM F12 containing 2 μg/ml blasticidin S and 5 ng/ml IL3, maintain for 3 days; change the medium with DMEM F12 containing 2 ug/ml blasticidin S and 2.5 ng/ml IL3, maintain 3 days; change the medium with DMEM F12 containing 2 ug/Ml blasticidin S, maintain to culture.
MTT Cell proliferation assay: 5×10^3 per well cell with 100 μl medium was seeded in 96-well plate; 24 hours later, 100 μl fresh medium with various concentration of compounds; After the cells were treated by compounds for 72 hours, add 20 μl MTT (5 mg/ml) into each wells; The plate is incubated at 37° C. for 4 hours; Centrifuge the plate at 800 g for 10 mins, Aspirated the medium, add 150 μl DMSO into each well. Shake plates gently for 10 mins, Measure the absorbance at 570 nm on plate reader; IR=(WC−WT)/WC.

ALK kinase = ALK kinase (Homo sapiens, UniProt Q9UM73); experiment: ALK kinase assay; assay type: biochemical
Sequence of ALK kinase (Q9UM73 19-1620): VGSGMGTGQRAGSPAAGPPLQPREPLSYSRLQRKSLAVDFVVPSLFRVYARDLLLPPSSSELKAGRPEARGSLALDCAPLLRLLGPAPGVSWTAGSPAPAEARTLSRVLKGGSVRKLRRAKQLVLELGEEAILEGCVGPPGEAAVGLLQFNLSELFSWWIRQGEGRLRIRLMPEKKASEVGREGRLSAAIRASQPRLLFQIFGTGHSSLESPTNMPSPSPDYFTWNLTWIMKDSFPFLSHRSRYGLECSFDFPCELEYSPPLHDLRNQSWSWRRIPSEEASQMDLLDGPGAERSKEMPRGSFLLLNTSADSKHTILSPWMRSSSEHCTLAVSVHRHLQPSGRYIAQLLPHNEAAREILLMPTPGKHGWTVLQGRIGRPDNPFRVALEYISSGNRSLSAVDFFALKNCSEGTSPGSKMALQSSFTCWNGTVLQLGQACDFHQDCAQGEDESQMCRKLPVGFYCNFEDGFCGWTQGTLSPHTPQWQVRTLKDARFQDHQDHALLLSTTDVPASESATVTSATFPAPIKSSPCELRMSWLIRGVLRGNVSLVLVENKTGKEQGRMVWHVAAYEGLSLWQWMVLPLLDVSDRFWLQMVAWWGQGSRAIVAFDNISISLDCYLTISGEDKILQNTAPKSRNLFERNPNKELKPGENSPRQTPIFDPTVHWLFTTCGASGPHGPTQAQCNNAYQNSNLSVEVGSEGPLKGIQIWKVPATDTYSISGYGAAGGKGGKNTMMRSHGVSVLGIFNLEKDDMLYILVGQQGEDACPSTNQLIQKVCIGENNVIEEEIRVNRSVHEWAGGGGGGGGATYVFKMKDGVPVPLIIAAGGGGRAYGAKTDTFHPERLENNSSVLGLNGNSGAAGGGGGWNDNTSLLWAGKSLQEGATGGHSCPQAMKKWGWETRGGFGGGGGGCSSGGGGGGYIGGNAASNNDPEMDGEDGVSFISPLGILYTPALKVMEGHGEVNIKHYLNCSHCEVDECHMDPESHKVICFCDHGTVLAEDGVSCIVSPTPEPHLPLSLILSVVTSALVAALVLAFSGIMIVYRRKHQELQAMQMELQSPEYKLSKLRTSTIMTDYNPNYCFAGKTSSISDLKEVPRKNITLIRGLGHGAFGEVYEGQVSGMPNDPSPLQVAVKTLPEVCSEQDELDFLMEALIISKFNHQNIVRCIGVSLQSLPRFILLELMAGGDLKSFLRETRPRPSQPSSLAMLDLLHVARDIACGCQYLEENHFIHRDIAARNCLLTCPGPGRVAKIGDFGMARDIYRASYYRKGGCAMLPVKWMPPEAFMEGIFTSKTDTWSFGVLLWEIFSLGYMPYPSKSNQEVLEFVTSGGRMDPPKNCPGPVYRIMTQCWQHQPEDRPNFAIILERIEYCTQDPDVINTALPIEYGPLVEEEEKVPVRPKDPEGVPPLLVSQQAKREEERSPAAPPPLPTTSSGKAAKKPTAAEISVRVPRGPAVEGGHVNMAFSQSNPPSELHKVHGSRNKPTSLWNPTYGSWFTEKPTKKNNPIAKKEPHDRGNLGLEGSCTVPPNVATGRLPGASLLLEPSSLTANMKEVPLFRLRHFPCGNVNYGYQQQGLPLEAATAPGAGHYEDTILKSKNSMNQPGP
Procedure: An in vitro assay which determines the ability of a test compound to inhibit ALK kinase. a) kinase-tagged T7 phage strains were prepared in an E. coli host derived from the BL21 strain. E. coli were grown to log-phase and infected with T7 phage and incubated with shaking at 32° C. until lysis. The lysates were centrifuged and filtered to remove cell debris. The remaining kinases were produced in HEK-293 cells and subsequently tagged with DNA for qPCR detection. […] The liganded beads were blocked with excess biotin and washed with blocking buffer (SeaBlock (Pierce), 1% BSA, 0.05% Tween 20, 1 mM DTT) to remove unbound ligand and to reduce non-specific binding. […] All reactions were performed in polystyrene 96-well plates in a final volume of 0.135 ml. […] The kinase concentration in the eluates was measured by qPCR. […]
b) An alternative method to conduct the kinase assay with the following condition and procedure: Reagent: Base Reaction buffer; 20 mM Hepes (pH 7.5), 10 mM MgCl2, 1 mM EGTA, 0.02% Brij35, 0.02 mg/ml BSA, 0.1 mM Na3VO4, 2 mM DTT, 1% DMSO.
1. Preparing indicated substrate in freshly prepared Base Reaction Buffer
2. Delivering any required cofactors to the substrate solution above
3. Delivering indicated kinase into the substrate solution and gently mix
4. Delivering compounds in DMSO into the kinase reaction mixture
5. Delivering ^33P-ATP (specific activity 0.01 μCi/μl final) into the reaction mixture to initiate the reaction.
6. Incubating kinase reaction for 120 min. at room temperature
7. Reactions are spotted onto P81 ion exchange paper (Whatman #3698-915)
8. Washing filters extensively in 0.75% Phosphoric acid. […]
c) An alternative method to conduct the kinase assay with the following condition and procedure: The assay was performed using Kinase-Glo Plus luminescence kinase assay kit (Promega). It measures kinase activity by quantitating the amount of ATP remaining in solution following a kinase reaction. The luminescent signal from the assay is correlated with the amount of ATP present and is inversely correlated with the amount of kinase activity.
The compound were diluted in 10% DMSO and 5 μl of the dilution was added to a 50 μl reaction so that the final concentration of DMSO is 1% in all of reactions. All of the enzymatic reactions were conducted at 30° C. for 40 minutes. The 50 μl reaction mixture contains 40 mM Tris, pH 7.4, 10 mM MgCl2, 0.1 mg/ml BSA, 1 mM DTT, 0.2 mg/ml substrate peptide, 10 μM ATP and ALK (Table 2.3.1). After the enzymatic reaction, 50 μl of Kinase-Glo Plus Luminescence kinase assay solution (Promega) was added to each reaction and incubate the plate for 5 minutes at room temperature. Luminescence signal was measured using a BioTek Synergy 2 microplate reader. ALK activity assays were performed in duplicate at each concentration. The luminescence data were analyzed using the computer software, Graphpad Prism. The difference between luminescence intensities in the absence of ALK (Lut) and in the presence of ALK (Luc) was defined as 100% activity (Lut−Luc). Using luminescence signal (Lu) in the presence of the compound, % activity was calculated as % activity={(Lut−Lu)/(Lut−Luc)}×100%, where Lu=the luminescence intensity in the presence of the compound (all percent activities below zero were shown zero in the table). The values of % activity versus a series of compound concentrations were then plotted using non-linear regression analysis of Sigmoidal dose-response curve generated with the equation Y=B+(T−B)/1+10^((Log EC50−X)×Hill Slope), where Y=percent activity, B=minimum percent activity, T=maximum percent activity, X=logarithm of compound and Hill Slope=slope factor or Hill coefficient. The IC50 value was determined by the concentration causing a half-maximal percent activity.

[2] = tested on: EML4-ALK-BAF3 cell line xenograft; assay type: in vivo; conditions: 40 mg/kg oral gavage once daily
Description: A representative protocol for the in vivo experiment is as followed to establish the subcutaneous EML4-ALK-BAF3 cell line xenograft model in nude mice and to evaluate the in vivo therapeutic efficacy of the compounds: Animals: Male Balb/c nude mice (6˜8 weeks old) were obtained from SLAC Laboratory Animal, Shanghai, China. Animals were maintained under SPF conditions in sterile filter top cages and housed on HEPA-filtered ventilated racks. Animals received sterile rodent chow and water ad libitum. Cell line: BAF3-EML4-ALK stable cell line, the BAF3 cell which could expressed fusion oncogene EML4-ALK. S.c. Xenograft Models in Athymic Mice: Cells for implantation into athymic mice were harvested and pelleted by centrifugation at 1200 r/min for 5 min. Cells were washed once and resuspended in sterile PBS buffer with 5×10^6 in 200 μl. Then cells were implanted s.c. into the right scapular region of each mouse and allowed to grow to 200˜300 mm^3 before the administration of compound. Preparation of the Dose Formulation: each compound was suspensioned in 0.5% CMC-Na. Randomization: When tumor volumes approach 200˜300 mm^3, the mice will be randomized into 5 groups according to the tumor volume. The day will be denoted as D1 and the treatments will be started at this day. Administered: Dose will be administered with oral gavage needle once daily for number of days. Treatment of compounds administered in 0.5% CMC-Na by p.o. gavage was initiated when tumors were 200˜300 mm^3 in volume. Observations: After inoculation, the animals will be checked daily for morbidity and mortality. At the time of routine monitoring, the animals will be checked for any effects of tumor growth and treatments on normal behavior such as mobility, body weight gain/loss (body weights will be measured twice weekly or every other day), eye/hair matting and any other abnormal effect. Death and observed clinical signs will be recorded on the basis of the numbers of animals within each subset. Tumor Size Measurements: Tumor volume was determined by measurement with electronic vernier calipers every 3 days and tumor volume was calculated as the product of its length×width^2×0.5. Effect studies: Tumor volume was expressed on indicated days as the mean tumor volume ±SD. […] Significant differences between the treated versus the control groups (p<0.05) were determined using t test. At study endpoint, after blood collection, mice were practiced euthanasia by cervical dislocation, the tumor tissue was collected first, then abdominal cavity was cut open, liver and spleen were excised, then weight after the gallblader was removed respectively. Organ weight and Organ/body weight ratios between the treated versus the control groups were compared. Ratios was calculated as follows: Ratios=Organ weight/(body weight-tumor weight). Both organ weight and Organ/body weight ratios were also expressed as mean±SD, and significant differences between the treated versus the control groups (p<0.05) were determined using t test.

[3] = ALK kinase assay, read-out: ALK (IC50 grading)

SMILES	GI50 [1]	IC50 (ALK kinase; [3])	IC50 (ALK kinase; read-out: IC50 in the ALK kinase assay)	Tumor growth inhibition (TGI, %) ([2]; Table C, day 2)	Tumor growth inhibition (TGI, %) ([2]; Table C, day 5)	Tumor growth inhibition (TGI, %) ([2]; Table C, day 8)	Tumor growth inhibition (TGI, %) ([2]; Table C, day 11)	Tumor growth inhibition (TGI, %) ([2]; Table C, day 14)	liver weight at the end of the study ([2]; control group 1.523)	Tumor growth inhibition (TGI, %) ([2]; Table B, day 4)	Tumor growth inhibition (TGI, %) ([2]; Table B, day 7)	Tumor growth inhibition (TGI, %) ([2]; Table B, day 9)
[2H]C([2H])([2H])N1CCC(n2cc(-c3cnc(N)c(O[C@H](C)c4c(Cl)ccc(F)c4Cl)c3)cn2)CC1 [Compound 20, (R)-3-(1-(2,6-dichloro-3-fluorophenyl)ethoxy)-5-(1-(1-d3-methylpiperidin-4-yl)-1H-pyrazol-4-yl)pyridin-2-amine]	≤ 100 nM	≤ 100 nM	2.6 nM	29.80%	58.20%	71.73%	90.29%	92.09%				
CC(=O)Nc1ncc(-c2cnn(C3CCNCC3)c2)cc1O[C@H](C)c1c(Cl)ccc(F)c1Cl [Compound 18, (R)—N-(3-(1-(2,6-dichloro-3-fluorophenyl)ethoxy)-5-(1-(piperidin-4-yl)-1H-pyrazol-4-yl)pyridin-2-yl)acetamide]	≤ 100 nM	≤ 100 nM							1.318 gram	24.11%	38.91%	39.08%
